Six compounds from PubChem BioAssay (NCI) can be followed below.

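Where inhibition never reached the appropriate level, the endpoint shown equals the highest concentration tested. Otherwise, values were interpolated linearly from a five-concentration, 48-hour dose response in 96-well plates. TGI: total growth inhibition.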

The test system of one assay is IGROV1 ovarian. Nature of the assay: NCI-60 cell line screen, 48 h.
As to `O=C(O)C1CC2C3CCC2C1C3=O` (stereo not given), the TGI was over 100 µM.
Take `CCCCCC(=O)Nc1n[nH]nc1C(N)=O`: the TGI was over 100 µM.
The compound `CCOC(=O)C(c1c[nH]c2ccccc12)(c1c[nH]c2ccccc12)c1c[nH]c2ccccc12` returned a TGI of over 100 µM.
The same measure, in the same setting: the same measure for `COc1ccc(Br)c2c1CC(C(=O)O)CC2` (stereo not given): over 100 µM.
On the same count and under the same terms, the same measure for `Fc1cc(C2=C[C@H](c3ccc(Cl)cc3)NC(=S)N2)c(Cl)cc1Cl`: over 100 µM; for `CCCCc1ccc(Nc2nc(Cl)c3c(ncn3COCCOC(C)=O)n2)cc1`: 40.2 µM.

In the next assay the test system is HL-60(TB) leukemia. The experiment in a line: NCI-60 cell line screen, 48 h.
Compound `O=C(O)C1CC2C3CCC2C1C3=O` (stereo not given) came in with a TGI of over 100 µM.
Same read-out and setting: the same measure for `CCCCCC(=O)Nc1n[nH]nc1C(N)=O`: over 100 µM; for `CCOC(=O)C(c1c[nH]c2ccccc12)(c1c[nH]c2ccccc12)c1c[nH]c2ccccc12`: 43.9 µM.
The same measure, in the same setting: next, `COc1ccc(Br)c2c1CC(C(=O)O)CC2` (stereo not given): over 100 µM; `Fc1cc(C2=C[C@H](c3ccc(Cl)cc3)NC(=S)N2)c(Cl)cc1Cl`: 65.7 µM; `CCCCc1ccc(Nc2nc(Cl)c3c(ncn3COCCOC(C)=O)n2)cc1`: 49.9 µM.

A further assay relates to SNB-75 CNS. The experiment in a line: NCI-60 cell line screen, 48 h.
`O=C(O)C1CC2C3CCC2C1C3=O` (stereo not given) yielded a TGI of over 100 µM.
Still for that read-out and setting: the same measure for `CCCCCC(=O)Nc1n[nH]nc1C(N)=O`: over 100 µM; for `CCOC(=O)C(c1c[nH]c2ccccc12)(c1c[nH]c2ccccc12)c1c[nH]c2ccccc12`: 88.5 µM.
Same read-out and setting: next, `COc1ccc(Br)c2c1CC(C(=O)O)CC2` (stereo not given): over 100 µM; `Fc1cc(C2=C[C@H](c3ccc(Cl)cc3)NC(=S)N2)c(Cl)cc1Cl`: over 100 µM; `CCCCc1ccc(Nc2nc(Cl)c3c(ncn3COCCOC(C)=O)n2)cc1`: 16.5 µM.

A further assay has as its system SF-268 CNS. Nature of the assay: NCI-60 cell line screen, 48 h.
Compound `O=C(O)C1CC2C3CCC2C1C3=O` (stereo not given) had a TGI of over 100 µM.
Consider `CCCCCC(=O)Nc1n[nH]nc1C(N)=O`, for which the TGI was over 100 µM.
Same read-out and setting: the same measure for `CCOC(=O)C(c1c[nH]c2ccccc12)(c1c[nH]c2ccccc12)c1c[nH]c2ccccc12`: over 100 µM.
The same measure, in the same setting: next, `COc1ccc(Br)c2c1CC(C(=O)O)CC2` (stereo not given): over 100 µM; `Fc1cc(C2=C[C@H](c3ccc(Cl)cc3)NC(=S)N2)c(Cl)cc1Cl`: over 100 µM.
The same measure, in the same setting: the same measure for `CCCCc1ccc(Nc2nc(Cl)c3c(ncn3COCCOC(C)=O)n2)cc1`: 38.5 µM.

The test system of another assay is U251 CNS. The experiment in a line: NCI-60 cell line screen, 48 h.
`O=C(O)C1CC2C3CCC2C1C3=O` (stereo not given) gave a TGI of over 100 µM.
In the case of `CCCCCC(=O)Nc1n[nH]nc1C(N)=O`, the TGI was over 100 µM.
In turn, `CCOC(=O)C(c1c[nH]c2ccccc12)(c1c[nH]c2ccccc12)c1c[nH]c2ccccc12` showed a TGI of over 100 µM.
On the same count and under the same terms, next, `COc1ccc(Br)c2c1CC(C(=O)O)CC2` (stereo not given): over 100 µM; `Fc1cc(C2=C[C@H](c3ccc(Cl)cc3)NC(=S)N2)c(Cl)cc1Cl`: over 100 µM; `CCCCc1ccc(Nc2nc(Cl)c3c(ncn3COCCOC(C)=O)n2)cc1`: 43.1 µM.

The next assay deals with MALME-3M melanoma. The experiment in a line: NCI-60 cell line screen, 48 h.
Regarding `O=C(O)C1CC2C3CCC2C1C3=O` (stereo not given), the TGI is over 100 µM.
Still for that read-out and setting: the same measure for `CCCCCC(=O)Nc1n[nH]nc1C(N)=O`: over 100 µM; for `CCOC(=O)C(c1c[nH]c2ccccc12)(c1c[nH]c2ccccc12)c1c[nH]c2ccccc12`: 78.1 µM.
The same measure, in the same setting: next, `COc1ccc(Br)c2c1CC(C(=O)O)CC2` (stereo not given): over 100 µM.
In the case of `Fc1cc(C2=C[C@H](c3ccc(Cl)cc3)NC(=S)N2)c(Cl)cc1Cl`, the TGI was over 100 µM.
Same read-out and setting: next, `CCCCc1ccc(Nc2nc(Cl)c3c(ncn3COCCOC(C)=O)n2)cc1`: 36.9 µM.

The subject of the next assay is PC-3 prostate. The experiment in a line: NCI-60 cell line screen, 48 h.
`O=C(O)C1CC2C3CCC2C1C3=O` (stereo not given) had a TGI of over 100 µM.
Same read-out and setting: next, `CCCCCC(=O)Nc1n[nH]nc1C(N)=O`: over 100 µM.
Same read-out and setting: next, `CCOC(=O)C(c1c[nH]c2ccccc12)(c1c[nH]c2ccccc12)c1c[nH]c2ccccc12`: 71.2 µM; `COc1ccc(Br)c2c1CC(C(=O)O)CC2` (stereo not given): over 100 µM; `Fc1cc(C2=C[C@H](c3ccc(Cl)cc3)NC(=S)N2)c(Cl)cc1Cl`: over 100 µM.
On to `CCCCc1ccc(Nc2nc(Cl)c3c(ncn3COCCOC(C)=O)n2)cc1`, for which the TGI was found to be 37.4 µM.

Another assay deals with ACHN renal. Nature of the assay: NCI-60 cell line screen, 48 h.
On to `O=C(O)C1CC2C3CCC2C1C3=O` (stereo not given), for which the TGI was over 100 µM.
On the same count and under the same terms, next, `CCCCCC(=O)Nc1n[nH]nc1C(N)=O`: over 100 µM; `CCOC(=O)C(c1c[nH]c2ccccc12)(c1c[nH]c2ccccc12)c1c[nH]c2ccccc12`: over 100 µM.
On the same count and under the same terms, next, `COc1ccc(Br)c2c1CC(C(=O)O)CC2` (stereo not given): over 100 µM; `Fc1cc(C2=C[C@H](c3ccc(Cl)cc3)NC(=S)N2)c(Cl)cc1Cl`: over 100 µM; `CCCCc1ccc(Nc2nc(Cl)c3c(ncn3COCCOC(C)=O)n2)cc1`: 35.8 µM.

Another assay concerns NCI-H460 lung. Nature of the assay: NCI-60 cell line screen, 48 h.
In turn, `O=C(O)C1CC2C3CCC2C1C3=O` (stereo not given) had a TGI of over 100 µM.
The compound `CCCCCC(=O)Nc1n[nH]nc1C(N)=O` returned a TGI of over 100 µM.
Regarding `CCOC(=O)C(c1c[nH]c2ccccc12)(c1c[nH]c2ccccc12)c1c[nH]c2ccccc12`, the TGI was over 100 µM.
`COc1ccc(Br)c2c1CC(C(=O)O)CC2` (stereo not given) returned a TGI of over 100 µM.
Still for that read-out and setting: next, `Fc1cc(C2=C[C@H](c3ccc(Cl)cc3)NC(=S)N2)c(Cl)cc1Cl`: over 100 µM; `CCCCc1ccc(Nc2nc(Cl)c3c(ncn3COCCOC(C)=O)n2)cc1`: 34.4 µM.

A further assay has as its system NCI/ADR-RES ovarian. The experiment in a line: NCI-60 cell line screen, 48 h.
On to `O=C(O)C1CC2C3CCC2C1C3=O` (stereo not given), for which the TGI is over 100 µM.
On the same count and under the same terms, the same measure for `CCCCCC(=O)Nc1n[nH]nc1C(N)=O`: over 100 µM; for `CCOC(=O)C(c1c[nH]c2ccccc12)(c1c[nH]c2ccccc12)c1c[nH]c2ccccc12`: over 100 µM.
On the same count and under the same terms, the same measure for `COc1ccc(Br)c2c1CC(C(=O)O)CC2` (stereo not given): over 100 µM; for `Fc1cc(C2=C[C@H](c3ccc(Cl)cc3)NC(=S)N2)c(Cl)cc1Cl`: over 100 µM; for `CCCCc1ccc(Nc2nc(Cl)c3c(ncn3COCCOC(C)=O)n2)cc1`: 41.2 µM.
